# Measurements reported in patent publication US10238118B2 (priority 2011, dated 2019).
# Test system: Xylella fastidiosa (Xf)
# Type: cell-based
# Conditions: single metabolite from Cochliobolus sp. extract, identified by NMR and MS
compound,measurement,value
C/C=C/c1cc2c(c(=O)o1)C(=O)[C@@H](O)[C@H](C)O2 [radicinin],anti-Xf inhibitory activity of the isolated metabolite,inhibitory activity
